Measured values from paper PMC9600394, “Efficient Synthesis with Green Chemistry Approach of Novel Pharmacophores of Imidazole-Based Hybrids for Tumor Treatment: Mechanistic Insights from In Situ to In Silico” (Cancers, 2022).
Where two headings read alike, the source gives them in different places.

Experiments:
hCA-IX [1] = molecular target: T1, hCA-IX (Homo sapiens, UniProt Q16790); assay: In vitro inhibition of human CA-IX (p-nitrophenyl acetate, 96-well plate); assay type: biochemical; settings: for hCA-IX IC50 ± SEM / IC50: purified enzyme, substrate p-nitrophenyl acetate, 25 °C, µM from b1; for hCA-IX IC50 ± SEM: unit not given; for IC50: unit inferred, read-out: hCA-IX IC50 ± SEM; for Selectivity / specificity for hCA-IX (in words): hCA-IX versus hCA-II
hCA-II [2] = molecular target: T2, hCA-II (Homo sapiens, UniProt P00918); assay: In vitro inhibition of human CA-II (p-nitrophenyl acetate, 96-well plate); assay type: biochemical; settings: for hCA-II IC50 ± SEM: unit not given; for Inhibitory activity for hCA-II in words: compared to acetazolamide
[3] = MTT assay in normal breast cell line MCF-10A; settings: human
Experimental: (§1) This cell line is ER, PR, and E-cadherin negative, and it lacks the growth factor receptor HER2. […] The normal human breast cell line (MCF-10A) was used as a control in the study. Cells were cultured in DMEM supplemented with 10% FBS and 1% antibiotics (100 U/mL penicillin). […] After 48 h of incubation, 20 μL of MTT solution (5 mg/mL) was pipetted into each well and incubated for another 4 h. The medium was later discarded, and the formazan precipitate was dissolved in DMSO. The absorbance of the mixtures was determined by a microplate reader at 570 nm. All the experiments were performed in triplicate, and the cytotoxicity was expressed as a percentage of cell viability and compared with untreated control cells [33]. % Viability=Absorbance of sample/Absorbance of control×100
(§2) The dose–response and IC50 values were calculated by IBM SPSS Statistics 26 software.
(§3) Simultaneously, the normal human breast epithelial cell line (MCF-10A) was used as a positive control. The MTT [3-(4,5-dimethylthiazol-2-yl)-2,5-diphenyltetrazolium bromide] assay was used to determine the decrease in cancer cell viability induced by the synthesized hybrids.

MCF-10A = assay: MTT assay in normal breast cell line MCF-10A; settings: for inhibition at 100 µM / IC50: Homo sapiens, MCF-10A, 48 h; for inhibition at 100 µM: read-out: MCF-10A %Inhibition; for IC50: read-out: MCF-10A IC50
Experimental: as §1, §2, §3

MDA-MB-231 = assay: MTT assay in breast cancer cell line MDA-MB-231; settings: for inhibition at 100 µM: read-out: MDA-MB-231 %Inhibition; for viability at 100 µM: read-out: MDA-MB-231 %Viability
Experimental: as §1, §2, §3

hCA-IX [4] = molecular target: T1, hCA-IX; assay: Enzyme kinetic (mechanistic) studies on hCA-IX; assay type: biochemical; settings: for Type of Inhibition (hCA-IX): Lineweaver–Burk / Dixon plots; for Kmapp (hCA-IX): Michaelis–Menten constant in the presence of inhibitors; for Vmaxapp (hCA-IX): maximum velocity of the enzyme in the presence of inhibitors
hCA-II [5] = molecular target: T2, hCA-II; assay: Enzyme kinetic (mechanistic) studies on hCA-II; settings: for Type of Inhibition (hCA-II): Lineweaver–Burk / Dixon plots; for Vmaxapp (hCA-II): maximum velocity of the enzyme in the presence of inhibitors
Experimental: In vitro inhibition of human CA (CA-II, and CA-IX) was performed in 96-well plate. Each well of the 96-well plate comprised 20 µL of the test compound (0.5 mM), 20 µL of the purified enzyme (0.1 mg/mL), 140 µL of the assay buffer (HEPES–tris, 20 mM), and 20 µL of the substrate (p-Nitrophenyl acetate; prepared in methanol), making a final volume of 200 µL. The assay procedure started with the incubation of the test compound, desired enzyme, and 140 µL of buffer for 15 min. […] All the in vitro testing results, e.g., percent inhibition, and the IC50 values were analyzed by EZ-Fit, which is a curve-fitting enzyme kinetics program (Perrella Scientific Inc., Amherst, MA, USA). All kinetic graphs were plotted by GraFit program (Horley, UK). Different parameters and their values, such as the values of intercepts, slopes, correlation coefficients, and their standard error means (SEMs), were calculated by the nonlinear regression analysis using the same program (GraFit program).
Certain parameters of the assay were changed in order to determine the mode of inhibition of compounds against specific enzymes.

[6] = purified enzyme, substrate p-nitrophenyl acetate, 25 °C, µM from b1
[7] = Homo sapiens, MDA-MB-231, 48 h, read-out: MDA-MB-231 IC50, 48 h, MTT
[8] = read-out: MDA-MB-231 IC50, 48 h, MTT

Row | Compound | hCA-II IC50 ± SEM (hCA-II [2]; [6]) | viability at 48 h, 100 µM [3] [%] | inhibition at 100 µM (MCF-10A) [%] | IC50 (MCF-10A) [µM] | inhibition at 100 µM (MDA-MB-231; Homo sapiens, MDA-MB-231, 48 h) [%] | viability at 100 µM (MDA-MB-231; Homo sapiens, MDA-MB-231, 48 h) [%] | IC50 (MDA-MB-231; [7]) [µM] | IC50 (hCA-IX [1]) [µM] | IC50 (hCA-II [2]) [µM] | Inhibitory activity for hCA-II in words (hCA-II [2]) | Ki (hCA-IX [4]) [µM] | Type of Inhibition (hCA-IX) (hCA-IX [4]) | Kmapp (hCA-IX) (hCA-IX [4]) | Vmaxapp (hCA-IX) (hCA-IX [4]) | melting point | IC50 (MDA-MB-231; [8]) [µM] | Selectivity / specificity for hCA-IX (in words) (hCA-IX [1]) | further results
1 | Cc1ncc(-c2c(O)n(C)c(=O)n(C)c2=O)[nH]1 [Compound 6, 6-hydroxy-1,3-dimethyl-5-(2-methyl-1H-imidazol-5-yl) pyrimidine-2,4(1H,3H)-dione] | Inactive | 86.8 | 13.2 | > 100 | 58.4 | 41.6 | 79.4 | – | – | – | – | – | – | – | – | – | – | hCA-IX IC50 ± SEM (hCA-IX [1]): Inactive
2 | Cc1ncc(-c2c(O)[nH]c(=O)[nH]c2=O)[nH]1 [Compound 3, 6-hydroxy-5-(2-methyl-1H-imidazol-5-yl) pyrimidine-2,4(1H,3H)-dione] | – | 85.7 | 14.3 | > 100 | 61.2 | 38.8 | 76.1 | 10.9 ± 0.8 | 30.7 ± 3.4 | weak activity | 8.01 ± 0.01 | competitive inhibition | 0.38 | 23.01 | 215 °C (dec.) | – | – | –
3 | Cc1ncc(C2=C(O)CCCC2=O)n1CCO [Compound 1, 3-hydroxy-2-(1-(2-hydroxyethyl)-2-methyl-1H-imidazol-5-yl) cyclohex-2-en-1-one] | – | – | 13.2 | > 100 | 51.4 | 48.6 | 96 | 23 ± 0.5 | – | potent inhibitory activity | – | – | – | – | 186 to 190 °C | – | – | Inhibitory activity for hCA-IX in words (hCA-IX [1]; compared to the standard acetazolamide): comparatively weak activity; IC50 (hCA-II [2]; purified enzyme, substrate p-nitrophenyl acetate, 25 °C, unit inferred, µM from b1, read-out: hCA-II IC50 ± SEM): 11.6 ± 0.2 µM; viability at 48 h, 100 µM ([3]; MCF-10A normal breast epithelial cells): 86.8%; Ki (hCA-II [5]): 9.14 ± 0.08 µM; Type of Inhibition (hCA-II) (hCA-II [5]): competitive inhibition; Vmaxapp (hCA-II) (hCA-II [5]): 19.32
4 | Cc1ncc(-c2c(O)[nH]c(=S)[nH]c2=O)n1CCO [Compound 9, 6-hydroxy-5-(1-(2-hydroxyethyl)-2-methyl-1H-imidazol-5-yl)-2-thioxo-2,3-dihydropyrimidin-4(1H)-one] | – | 84.5 | 13.2 | > 100 | 73.5 | 26.5 | 58.6 | 19.9 ± 0.8 | 27.5 ± 1.3 | weak activity | 17.02 ± 0.02 | competitive inhibition | 0.47 | 23.01 | – | 58.6 | – | –
5 | Cc1ncc(-c2c(O)n(C)c(=O)n(C)c2=O)n1CCO [Compound 10, 6-hydroxy-5-(1-(2-hydroxyethyl)-2-methyl-1H-imidazol-5-yl)-1,3-dimethylpyrimidine-2,4(1H,3H)-dione] | Inactive | 84.9 | 15.1 | > 100 | 75.5 | 24.5 | 60.9 | 14.8 ± 0.1 | – | – | 13.24 ± 0.03 | competitive inhibition | 0.40 | 23.01 | 163 to 165 °C | – | selective inhibitors of hCA-IX | –
6 | Cc1ncc(-c2c(O)[nH]c(=O)[nH]c2=O)n1CCOC(=O)c1ccccc1 [Compound 5, 2-(5-(6-hydroxy-2,4-dioxo-1,2,3,4-tetrahydropyrimidin-5-yl)-2-methyl-1H-imidazol-1-yl) ethyl benzoate] | Inactive | 79.5 | 20.5 | > 100 | 82.1 | 17.9 | 53.6 | – | – | – | – | – | – | – | – | – | – | hCA-IX IC50 ± SEM (hCA-IX [1]): Inactive; Toxicity to normal breast cells (MCF-10A) in words (MCF-10A; MTT): no toxicity; Anticancer/cytotoxic activity in MDA-MB-231 in words (MDA-MB-231; MTT): excellent anticancer/cytotoxic activity
7 | Cc1ncc(-c2c(O)n(C)c(=O)n(C)c2=O)n1CCOC(=O)c1ccccc1 [Compound 11, 2-(5-(6-hydroxy-1,3-dimethyl-2,4-dioxo-1,2,3,4-tetrahydropyrimidin-5-yl)-2-methyl-1H-imidazol-1-yl) ethyl benzoate] | – | 87.9 | 12.1 | > 100 | 68.2 | 31.8 | 63.1 | 11.9 ± 0.3 | 15.3 ± 0.3 | potent inhibitory activity | 8.32 ± 0.05 | competitive inhibition | 0.42 | 23.01 | 180 to 185 °C | 63.1 | selective inhibitors of hCA-IX | Ki (hCA-II [5]): 12.58 ± 0.04 µM; Type of Inhibition (hCA-II) (hCA-II [5]): competitive inhibition; Kmapp (hCA-II) (hCA-II [5]; Michaelis–Menten constant in the presence of inhibitors): 0.14; Vmaxapp (hCA-II) (hCA-II [5]): 19.32
8 | Cc1ncc(-c2c(O)[nH]c(=S)[nH]c2=O)n1CCOC(=O)c1ccccc1 [Compound 7, 2-(5-(6-hydroxy-4-oxo-2-thioxo-1,2,3,4-tetrahydropyrimidin-5-yl)-2-methyl-1H-imidazol-1-yl) ethyl benzoate] | Inactive | 86.8 | 13.2 | > 100 | 69.2 | 30.8 | 64 | 9.6 ± 0.2 | – | – | 7.32 ± 0.02 | competitive inhibition | – | 23.01 | 225 to 230 °C | 64 | selective inhibitors of hCA-IX | Inhibitory activity for hCA-IX in words (hCA-IX [1]): strong inhibitory activity
9 | Cc1ncc(-c2c(O)[nH]c(=S)[nH]c2=O)[nH]1 [Compound 4, 6-hydroxy-5-(2-methyl-1H-imidazol-5-yl)-2-thioxo-2,3-dihydropyrimidin-4(1H)-one] | – | 82.1 | 17.9 | > 100 | 60.5 | 39.5 | 75.7 | 17.1 ± 0.6 | 31.1 ± 1.3 | weak activity | 15.02 ± 0.04 | competitive inhibition | 0.43 | 23.01 | – | – | – | –
10 | Cc1ncc(-c2c(O)[nH]c(=O)[nH]c2=O)n1CCO [Compound 8, 6-hydroxy-5-(1-(2-hydroxyethyl)-2-methyl-1H-imidazol-5-yl) pyrimidine-2,4 (1H, 3H)-dione] | Inactive | 84.5 | 15.5 | > 100 | 77.8 | 22.2 | 55.6 | 32.2 ± 1 | – | – | – | – | – | – | – | – | selective inhibitors of hCA-IX | Inhibitory activity for hCA-IX in words (hCA-IX [1]): comparatively weak activity
